# Results from patent US20050020495A1, “Antiretroviral compositions comprising thymosin alpha peptides and protease inhibitors” (priority 2001, published 2005).
# Ends that are not written are not given here.
# How the values were obtained:
# HIV [1] = details: cited from earlier work
# HIV [2] = assay: Randomised trial of Tα1 injections versus no injections in clinically stable HIV patients; TREC response in PBMCs, lymphocyte subsets, tolerability; assay type: in vivo, human
# Experimental: Efficacy of HIV treatment is shown by evaluating TREC response in peripheral blood mononuclear cells (PBMCs) to treatment with Tα1 plus an HIV inhibitory agent.
# Twenty clinically stable patients with viral loads <400 copies/ml and CD4 counts less than 200 cells/μl were randomised to receive 3.2 mg […] subcutaneous injections twice weekly or no injections for 12 weeks. CD4 and CD8 counts, CD45 RO+ and RA+ subsets and T cell re-excision circles (TREC) in peripheral blood mononuclear cells (PBMCs) were measured every four weeks, along with regular clinical assessments and routine laboratory tests.
substance,measurement,setting,value
"Thymosin α1 (SDAAVDTSSEITTKDLKEKKEVVEEAEN; not fully specified (N-terminus); ends and bridges not checked; UniProt P06454 2-29, looked up) [Tα1, 28-amino acid thymic peptide hormone with immunomodulatory properties, homologous to a natural product isolated from thymosin fraction 5 of calf thymuses]",CD4 counts,HIV [1]; given in combination with either IL-2 or interferon-α,induced increases in CD4 counts
same,Systemic adverse reactions,"HIV [1]; patients taking zidovudine monotherapy, contrasted with IL-2 or INF-α",virtual absence of any significant systemic adverse reactions
same,Signs of toxicity during the trial,HIV [2]; 3.2 mg subcutaneous twice weekly for 12 weeks,no patients taking the medication developed signs of toxicity
same,Tolerability,"HIV [2]; 3.2 mg subcutaneous twice weekly for 12 weeks, 13 patients on Tα1",well tolerated
same,"Changes in CD4, CD8 and CD45 lymphocyte subsets versus controls",HIV [2]; over the 12 week study period,did not differ between the groups
same,Mean TREC levels relative to control group,HIV [2]; week 12,20 times
same,Patients with detectable TREC levels versus control patients,HIV [2]; week 12,far more of the Tα1 group had detectable TREC levels than control patients
same,TREC levels in PBMCs versus controls,HIV [2]; week 12,significant increase
